The text below walks through data of ChEMBL document CHEMBL1134973, “Modification of the pyridine moiety of non-peptidyl indole GnRH receptor antagonists” (Bioorg Med Chem Lett, 2002).

Data set [1] is described as follows: Half-life of compound in plasma of dog was determined. Format: ADME, organism-based, Canis lupus familiaris.
Data set [2] concerns the target T1, Gonadotropin-releasing hormone receptor (Homo sapiens, UniProt P30968).
T1 sequence (P30968 whole entry): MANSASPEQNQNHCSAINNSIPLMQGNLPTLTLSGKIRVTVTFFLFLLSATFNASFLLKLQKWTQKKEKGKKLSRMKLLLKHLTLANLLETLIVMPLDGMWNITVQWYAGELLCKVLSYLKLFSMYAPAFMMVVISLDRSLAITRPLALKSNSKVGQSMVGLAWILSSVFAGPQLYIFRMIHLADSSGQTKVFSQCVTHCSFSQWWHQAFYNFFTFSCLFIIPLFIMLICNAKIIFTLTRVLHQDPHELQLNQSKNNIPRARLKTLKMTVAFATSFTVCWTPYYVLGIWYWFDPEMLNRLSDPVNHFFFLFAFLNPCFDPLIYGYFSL
Put plainly: Concentration required for the inhibition of I-125 labeled buserelin binding to the human Gonadotropin-releasing hormone receptor.

Data set [3] addresses T1, Gonadotropin-releasing hormone receptor. Put plainly: Concentration required for the inhibition of phosphatidyl inositol hydrolysis in chinese hamster ovary cells expressing human GnRH receptor (Gonadotropin Release Hormone receptor). Type of data set: functional, cell-based.
Data set [4] can be described thus: Oral bioavailability in dog. Conditions: in vivo. Format: ADME, organism-based, Canis lupus familiaris.
Data set [5] in a line: Half-life of compound was determined in rats. The note with it: rat, in vivo. Format: ADME, organism-based.
Data set [6] can be described thus: Half-life of compound was determined in dogs. Format: ADME, organism-based, Canis lupus familiaris. Conditions: dog, in vivo.
Data set [7] can be described thus: Oral bioavailability of compound was determined in rats. Format: ADME, organism-based. The note with it: rat, in vivo.

Usually half-life stands for the time in which the quantity being followed falls by half. A higher half-life goes with slow loss. In general, IC50 refers to the concentration that inhibits the measured activity by half. Read a low IC50 as inhibition by little substance. Broadly, the bioavailability is dose-corrected exposure relative to a reference, in per cent.

SMILES strings stand for the structures.

In turn, `Cc1cc(C)cc(-c2[nH]c3ccc(C(C)(C)C(=O)N4CC5CCC4CC5)cc3c2[C@H](C)CNCCc2ccnc(CO)c2)c1` gave a half-life in data set [1] of 2 h. The values for the half-maximal inhibitory concentration (IC50) in data set [2] and in data set [3] were 0.4 nM and 7.5 nM, respectively. In addition, the bioavailability in data set [4] was determined as 15%.
As for `Cc1cc(C)cc(-c2[nH]c3ccc(C(C)(C)C(=O)N4CC5CCC4CC5)cc3c2[C@H](C)CNCCc2cc[n+]([O-])c(C)c2)c1`, the figures for the 50% inhibitory concentration (IC50) in data set [2] and in data set [3] were 0.3 nM and 5.9 nM, respectively. Moreover, the half-life in data set [5] is 2 h; in data set [6], 5 h. Further, the bioavailability in data set [7] came to 23%; in data set [4] it was 25%.
`Cc1cc(C)cc(-c2[nH]c3ccc(C(C)(C)C(=O)N4CC5CCC4CC5)cc3c2[C@H](C)CNCCc2cc[n+]([O-])cc2)c1`: the IC50 in data set [2] was determined as 0.3 nM; in data set [3] it was 6.4 nM. In data set [4], this compound came in with a bioavailability of 14%.
For `Cc1cc(C)cc(-c2[nH]c3ccc(C(C)(C)C(=O)N4CC5CCC4CC5)cc3c2[C@H](C)CNCCc2cc(C)[n+]([O-])c(C)c2)c1`, the half-inhibitory concentration (IC50) in data set [2] was found to be 0.5 nM; in data set [3] it was 10 nM. Further, the half-life in data set [6] is 7 h. In data set [4], this compound yielded a bioavailability of 29%.
For `CCc1cc(CCNC[C@@H](C)c2c(-c3cc(C)cc(C)c3)[nH]c3ccc(C(C)(C)C(=O)N4CC5CCC4CC5)cc23)ccn1`, the 50% inhibitory concentration (IC50) in data set [2] is 3.3 nM; in data set [3] it was 19 nM.
For `CC(=O)OCc1cc(CCNC[C@@H](C)c2c(-c3cc(C)cc(C)c3)[nH]c3ccc(C(C)(C)C(=O)N4CC5CCC4CC5)cc23)ccn1`, in that order: 0.4 nM and 22 nM.
For `Cc1cc(C)cc(-c2[nH]c3ccc(C(C)(C)C(=O)N4CC5CCC4CC5)cc3c2[C@H](C)CNCCc2cc(C)nc(C)c2)c1`, in that order: 0.4 nM and 24 nM.
In the case of `Cc1cc(C)cc(-c2[nH]c3ccc(C(C)(C)C(=O)N4CC5CCC4CC5)cc3c2[C@H](C)CNCCc2ccnc(C)c2)c1`, the results for the IC50 in data set [2] and in data set [3] were 0.9 nM and 8.7 nM, respectively. The same compound yielded a bioavailability in data set [4] of 36%.
For `CCCc1cc(CCNC[C@@H](C)c2c(-c3cc(C)cc(C)c3)[nH]c3ccc(C(C)(C)C(=O)N4CC5CCC4CC5)cc23)ccn1`, the figures for the IC50 in data set [2] and in data set [3] were 4.6 nM and 62 nM, respectively.
With `Cc1cc(C)cc(-c2[nH]c3ccc(C(C)(C)C(=O)N4CC5CCC4CC5)cc3c2[C@H](C)CNCCc2ccncc2C)c1`, the IC50 in data set [2] was found to be 0.8 nM; in data set [3], 48 nM.
For `Cc1cc(C)cc(-c2[nH]c3ccc(C(C)(C)C(=O)N4CC5CCC4CC5)cc3c2[C@H](C)CNCCc2ccnc(C(C)(C)O)c2)c1`, in that order: 0.7 nM and 106 nM.
For `Cc1cc(C)cc(-c2[nH]c3ccc(C(C)(C)C(=O)N4CC5CCC4CC5)cc3c2[C@H](C)CNCCc2ccnc(C(C)O)c2)c1` (stereo partly specified), in that order: 0.6 nM and 20 nM.
In the same order, the values of `Cc1cc(C)cc(-c2[nH]c3ccc(C(C)(C)C(=O)N4CC5CCC4CC5)cc3c2[C@H](C)CNCCc2ccnc(C(=O)O)c2)c1` are 8.2 nM and 371 nM.
On to `CC(=O)c1cc(CCNC[C@@H](C)c2c(-c3cc(C)cc(C)c3)[nH]c3ccc(C(C)(C)C(=O)N4CC5CCC4CC5)cc23)ccn1`, for which the results for the half-inhibitory concentration (IC50) in data set [2] and in data set [3] were 0.6 nM and 12 nM, respectively.
In the same order, the values of `COC(=O)c1cc(CCNC[C@@H](C)c2c(-c3cc(C)cc(C)c3)[nH]c3ccc(C(C)(C)C(=O)N4CC5CCC4CC5)cc23)ccn1` are 0.9 nM and 25 nM.
For `Cc1cc(C)cc(-c2[nH]c3ccc(C(C)(C)C(=O)N4CC5CCC4CC5)cc3c2[C@H](C)CNCCc2cc[n+]([O-])cc2C)c1`, in that order: 0.8 nM and 26 nM.
In the same order, the values of `COCc1cc(CCNC[C@@H](C)c2c(-c3cc(C)cc(C)c3)[nH]c3ccc(C(C)(C)C(=O)N4CC5CCC4CC5)cc23)ccn1` are 0.7 nM and 55 nM.
`Cc1cc(C)cc(-c2[nH]c3ccc(C(C)(C)C(=O)N4CC5CCC4CC5)cc3c2[C@H](C)CNCCc2ccnc(C#N)c2)c1`: the IC50 in data set [2] came to 0.7 nM; in data set [3] it was 11 nM.
